System: Schistosoma mansoni
Experiment: High throughput screening of compounds against Schistosoma mansoni motility
Assay type: functional
Design: dose or concentration left out as unconfirmed

CCc1nc2n(n1)CC(Nc1cc(C)nc3ncnn13)CC2 (configuration not stated)
Percent Effect: -43.49%

COc1cc(CN2CCN(c3cccc(OC)c3)C(=O)C2)cc(OC)c1
Percent Effect: -47.17%

Cl.O=C(Cc1ccc(F)cc1)N1CCN(CC(O)C2CC2)CC1 (configuration not stated)
Percent Effect: -44.17%

Cc1ncc(CNC(=O)Nc2cc(C(F)(F)F)c[nH]c2=O)s1
Percent Effect: -39.38%

Cc1nc(C)n(CC2CCCN2CC(=O)NCc2ccco2)n1 (configuration not stated)
Percent Effect: -29.3%

O=C(CN1CCCC1Cn1cncn1)Nc1cccnc1 (configuration not stated)
Percent Effect: -24.16%

Cc1ccc(C(=O)O)cc1S(=O)(=O)Nc1nn(-c2ccccc2)cc1C
Percent Effect: -27.39%

CC(CN1CCC2(CC1)c1nc[nH]c1CCN2S(C)(=O)=O)C(F)(F)F (configuration not stated)
Percent Effect: 2.483%

O=C1CCSCC(C(=O)N2CCCC2)N1 (configuration not stated)
Percent Effect: -27.13%

CCCNCC1(O)CCCN(Cc2cccc(C)c2)C1=O (configuration not stated)
Percent Effect: -43.91%

CNC(=O)c1ccc(OC2CCN(S(C)(=O)=O)CC2)c(Cl)c1
Percent Effect: 40.62%

Cc1ncsc1C(=O)N1CCCC(c2noc(C(C)C)n2)C1 (configuration not stated)
Percent Effect: -12.34%

Cc1ccc(CNCC2CCc3nnc(C(C)C)n3C2)s1 (configuration not stated)
Percent Effect: 21.49%

CN(CCN1CCCCC1)C(=O)c1cc(CN2CCOCC2)on1
Percent Effect: -21.55%

CC(C)(C)C(=O)NCCC(=O)NC(C)(C)c1ccc2c(c1)OCCO2
Percent Effect: -18.95%

CCC(CC)c1cc(C(=O)N2CCCC(n3cncn3)C2)on1 (configuration not stated)
Percent Effect: 1.073%

CC1CN(C)c2ccccc2CN1C(=O)c1ccc[nH]1 (configuration not stated)
Percent Effect: -38.54%

CC(C)COC(C)C(=O)N1CCN(S(C)(=O)=O)CC1 (configuration not stated)
Percent Effect: -53.15%

O=S(=O)(c1cccnc1)N1CCN(CCn2ccnc2)CC1
Percent Effect: -24.98%

Cc1cc(N2CCC(N(C)C(=O)Nc3ccccc3)CC2)nc(C)n1
Percent Effect: -25.09%

CC(C)(C(=O)NCC1CC1)c1ccccc1F
Percent Effect: 9.48%

CS(=O)(=O)N1CCC(Oc2ccc(C(=O)N3CCSCC3)cc2Cl)CC1
Percent Effect: -0.7709%

CCCc1nnsc1C(=O)NCC1CCN(S(C)(=O)=O)CC1
Percent Effect: -25.98%

CCn1c(N)nc2cc(C(=O)NCc3ccccc3Cl)cnc21
Percent Effect: -40.17%

CCN1CCCC1CN(CCN(C)C)S(=O)(=O)c1cccc(C#N)c1 (configuration not stated)
Percent Effect: 27.57%

CSCCC(=O)N1CCC(Oc2cc(C)ccc2F)(C(=O)O)CC1
Percent Effect: 12.24%

O=C(NCCCn1nc2ccccn2c1=O)NC1CCC(O)CC1 (configuration not stated)
Percent Effect: -74.25%

Cc1cc(C)n(CC(=O)N2CCC(c3nc(C)no3)CC2)n1
Percent Effect: -18.96%

CSCC(=O)N1C[C@H]2CC[C@@H]1CN(Cc1ccccc1)C2
Percent Effect: 13.06%

Cc1n[nH]c(C)c1C1CCCN1C(=O)NCC(=O)NC(C)(C)C (configuration not stated)
Percent Effect: -7.96%

CNC(=O)CSc1nc2c(cnn2Cc2ccc(F)cc2)c(=O)[nH]1
Percent Effect: -34.73%

O=C(CCc1ccsc1)N1CCC(Cc2ccc(CO)cc2)C1 (configuration not stated)
Percent Effect: 6.677%

CS(=O)(=O)N1CCc2nc(NC(=O)Nc3c(F)cccc3F)sc2C1
Percent Effect: -37.65%

O=C(NCC1(CO)CC1)c1cccc2ccccc12
Percent Effect: -62.45%

COc1cccc(CNc2c(C)cnc3c2c(=O)n(C)c(=O)n3C)c1
Percent Effect: 5.662%

CC1CCN(CCNC(=O)c2cncnc2C(C)C)CC1
Percent Effect: -17.46%

N#CC1(C(=O)Nc2ccc(OC(F)F)cc2)CCCC1
Percent Effect: 6.367%

O=C(c1cccc(S(=O)(=O)NCCCc2ccco2)c1)N1CCOCC1
Percent Effect: -44.89%

COCC(=O)N1Cc2cnc(Cc3ccc(OC)cc3)nc2C1
Percent Effect: -28.71%

COc1ccc(CNCCc2cc(F)cc3c2OCOC3)cc1O
Percent Effect: -21.14%

COCc1ccccc1NC(=O)[C@@H]1CCCN1C(=O)c1ccco1
Percent Effect: -9.117%

CCOc1ncccc1NC(=O)c1sccc1C
Percent Effect: -42.63%

Cc1nccc(N2CCC(=O)N(Cc3ccc(F)cc3)C(C(C)C)C2)n1 (configuration not stated)
Percent Effect: -22.84%

Cc1nc(CN2CCCC(N(C)CCc3cccs3)C2)no1 (configuration not stated)
Percent Effect: -59.95%

O=C(c1ccc(Br)s1)N1CCN(Cc2ccc(OC(F)(F)F)cc2)CC1
Percent Effect: 31.43%

O=C(CSCC1CC1)N1CCCC(c2nccn2Cc2ccncc2)C1 (configuration not stated)
Percent Effect: 9.639%

CC(C)c1nn(CC(=O)N2CCCCC2)c(=O)c2c1cnn2C(C)(C)C
Percent Effect: -88.07%

CC(C)S(=O)(=O)NCC1CCCN(C(=O)c2ccc3c(c2)CCC3)C1 (configuration not stated)
Percent Effect: -22.55%

CCCc1cc(=O)[nH]c2nnc(SCC(=O)NCc3ccc(C)cc3)n12
Percent Effect: -78.33%

COc1ccccc1OCC(=O)NCC(O)(c1ccccc1)C1CC1 (configuration not stated)
Percent Effect: -13.46%

OCCC1CN(C2CCC2)CCN1C1CCCC1 (configuration not stated)
Percent Effect: -52.06%

CCC1CN(C(=O)c2ccc(=O)[nH]c2)CCC(=O)N1Cc1ccccc1 (configuration not stated)
Percent Effect: -27.12%

O=C(Nc1ccc(F)cc1)N1C[C@H]2CC[C@@H]1CN(Cc1cccnc1)C2
Percent Effect: -3.001%

CCOCCN1CCN(Cc2nc(C3CC3)no2)CC1CC (configuration not stated)
Percent Effect: -35.07%

COCCn1ccnc1C1CCCN(C(=O)CSCC2CC2)C1 (configuration not stated)
Percent Effect: -4.392%

COc1ccc(CNC(=O)NC2CCC(O)CC2)c(C(F)(F)F)c1 (configuration not stated)
Percent Effect: -1.236%

CCN1CC2(CCC1=O)CCN(C(=O)c1ccc(Cl)cc1O)CC2
Percent Effect: -8.652%

CN(C)C(=O)N1CCN(C(=O)C(c2ccccc2F)N(C)C)CC1 (configuration not stated)
Percent Effect: -1.181%

COC(=O)CN1CC(c2nc(Cc3ccccc3)no2)C1.O=C(O)C(=O)O
Percent Effect: -0.4449%

CSCC(CCO)NC(=O)Nc1cc(C)ccc1C (configuration not stated)
Percent Effect: -11.31%

CCS(=O)(=O)N1CCC(c2nnc(Cn3cccn3)n2C2CC2)CC1
Percent Effect: -7.484%

Fc1ccccc1-c1noc2c1CN(CC1CC1)CC2
Percent Effect: -95.25%

NC(=O)c1cccc(CC2CCN(C(=O)CCCN3CCOCC3)C2)c1 (configuration not stated)
Percent Effect: -44.07%

CCC(O)CNC(=O)c1coc(COc2ccc3sc(C)nc3c2)n1 (configuration not stated)
Percent Effect: -24.85%

O=C(CCn1cnnc1)N1CCCC(c2ncc[nH]2)C1 (configuration not stated)
Percent Effect: -28.96%

CN(C)CCN(Cc1cccc(C(F)(F)F)c1)C(=O)c1cc[nH]n1
Percent Effect: 19.83%

Cc1ccc(F)c(OC2(C(=O)O)CCN(C(=O)N3CCCC3)CC2)c1
Percent Effect: -4.164%

CC1(NC(=O)Cc2csc(C(C)(C)C)n2)CCS(=O)(=O)C1 (configuration not stated)
Percent Effect: -25.94%

Cc1cc(N2CCN3CCCCC3C2)n2nc(C)c(C)c2n1 (configuration not stated)
Percent Effect: -7.768%

Cc1nccn1-c1cc(CNC(=O)C(C)(C)C)ccn1
Percent Effect: -28.12%

CCOc1ccc(CN(C)C(=O)NC(C)c2nncn2C)cc1 (configuration not stated)
Percent Effect: -46.5%

Cc1nc2ccccn2c1CN(Cc1cccnc1)CC1CCCO1 (configuration not stated)
Percent Effect: -47.66%

CN(C)C(=O)CNC(=O)Nc1cccc(Cl)c1SC(F)F
Percent Effect: -29.89%

COCC(NC(=O)c1ccc[nH]1)c1cccc(C(F)(F)F)c1 (configuration not stated)
Percent Effect: -105.3%

CC(=O)Nc1cccc(C(=O)Nc2cnc3n2CCCC3)c1
Percent Effect: -24.57%

CCS(=O)(=O)N1CCC2(CCCN(Cc3cc(OC)ccc3F)C2)C1 (configuration not stated)
Percent Effect: 49.58%

O=C(Nc1ccnc(OC2CCOC2)c1)c1cc(F)ccc1F (configuration not stated)
Percent Effect: -26.29%

NC(=O)COc1cccc(C(=O)Nc2cnc3n2CCCC3)c1
Percent Effect: -21.49%

c1cc2c(cc1C1CCCN1Cc1nnnn1C1CC1)OCCO2 (configuration not stated)
Percent Effect: 5.096%

CNC(=O)CS(=O)(=O)C1CCN(S(=O)(=O)c2c(F)cccc2F)CC1
Percent Effect: -27.81%

COc1ccc(OC)c(-c2nc(CN(C)Cc3nncn3C)c(C)o2)c1
Percent Effect: -42.05%

COCC(NC(=O)c1cc[nH]n1)c1cccc(C(F)(F)F)c1 (configuration not stated)
Percent Effect: -87.52%

COc1ccccc1Oc1ncccc1CNC(=O)[C@@H](C)NC(C)=O
Percent Effect: -37.6%

CN(CCC(F)(F)F)C(=O)[C@H]1CSCN1C(=O)OC(C)(C)C
Percent Effect: -27.39%

Cc1nc(C)n(CC2CCCCN2CC(=O)Nc2cccnc2)n1 (configuration not stated)
Percent Effect: -10.51%

N#Cc1c(F)cccc1N1CCC(NS(=O)(=O)c2cccs2)CC1
Percent Effect: 28.82%

O=C(Nc1nc2c(s1)CN(S(=O)(=O)C1CC1)CC2)c1c(F)cccc1F
Percent Effect: 15.1%

CC1CCN(CCNC(=O)C2CCN(S(N)(=O)=O)CC2)CC1
Percent Effect: 6.276%

O=C1OCCN1CCOc1nc(-c2ccccc2Cl)no1
Percent Effect: -41.52%

CCCNC(=O)CNC(=O)CCc1ccccc1Br
Percent Effect: 24.36%

Cc1cc(-c2nnc(SCC(=O)O)n2C(C)c2ccccc2)nn1C (configuration not stated)
Percent Effect: -38.23%

O=C(CCc1ccccc1)Nc1ncccc1OC(F)F
Percent Effect: -1.295%

Cl.Cl.OC(CN1CCN(Cc2ccc(F)cc2)CC1)C1CC1 (configuration not stated)
Percent Effect: -83.95%

COC(=O)c1cc(OCC2CCC2)cc(C(=O)N[C@@H]2CNCC[C@H]2O)c1
Percent Effect: -27.72%

CC(C)NC(=O)NCCCc1cc(N)n(-c2ccccc2)n1
Percent Effect: -56.45%

CCCN(CCO)C(=O)C1CCC(=O)N(CCc2ccc(Cl)cc2)C1 (configuration not stated)
Percent Effect: -16.9%

COCc1ccccc1C(=O)NCCCN1CCCC1C(=O)N(C)C (configuration not stated)
Percent Effect: -41.89%

CC[C@@]1(O)CCN(C(=O)c2ccc(-c3cccc(F)c3)cc2)C[C@H]1O
Percent Effect: 16.9%

CCc1ncc2c(n1)CN(Cc1nc(C)c(C)o1)CC2
Percent Effect: -33.77%

CC(=O)NCCN1CCC(c2cccs2)CC1
Percent Effect: -65.41%

CCN(Cc1cccnc1)CC1CCCO1 (configuration not stated)
Percent Effect: -47.82%

CCn1nc(CC(C)C)cc1C(=O)NCCCOC
Percent Effect: -69.66%

CN1CCCN(C(=O)c2ccc3c(c2)nc(N2CCOCC2)n3C)CC1
Percent Effect: -26.36%

COCCCC1CCCN(C(=O)CCc2cc(O)no2)C1 (configuration not stated)
Percent Effect: 4.573%

CN(Cc1ccccc1)CC1(O)CCCN(CC(C)(C)C)C1=O (configuration not stated)
Percent Effect: 9.775%

CCc1cnc(CN(C)C2CCN(CCS(C)(=O)=O)C2)o1 (configuration not stated)
Percent Effect: -9.705%

CCc1cc(N[C@H]2CC[C@H](O)CC2)n2nc(C)c(C)c2n1
Percent Effect: 12.6%

CCc1nc(CN2CCCC(N(C)Cc3cnn(C)c3)C2)no1 (configuration not stated)
Percent Effect: -19.11%

Cc1cnccc1N1CCCN(C(=O)CCCc2cn[nH]c2)CC1
Percent Effect: -14.12%

Cc1nc(CC(=O)N2CCC[C@H]2c2nc(C(C)C)no2)cs1
Percent Effect: 11.66%

CC(C)S(=O)(=O)NCC1CCCN(C(=O)c2cccnc2)C1 (configuration not stated)
Percent Effect: -61.29%

Cc1ccn(-c2ccccc2NCc2ccccn2)n1
Percent Effect: -12.81%

— ChEMBL document CHEMBL3988442, “University of Dundee, Small-Polar-MMV Screening Library” (2021)
